{
  "source": "patent US8501816B2",
  "about": "“Antitussive compositions comprising memantine” (Cerecor, Inc., priority 2010, dated 2013)",
  "key": {"[1]": {"test_system": "citric acid evoked coughing", "experiment": "Microinjection of NMDA receptor antagonists into the central termination sites of the cough receptors", "assay_type": "in vivo, guinea pig", "details": "anesthetized guinea pigs"}, "[2]": {"test_system": "citric acid induced cough", "experiment": "Citric acid induced cough in conscious guinea pigs", "details": "for Mean ± sem cumulative coughs / ≧15 Cumulative coughs/total number of guinea pigs: potentially synergistic agents; for Effect of single agent on citric acid (0.01-0.3M) induced cough: oral, 60 minutes prior, memantine 3, guaifenesin 100, diphenhydramine 10, benzonatate 30, ambroxol 100 mg/kg; for Effect on cumulative number of coughs evoked by lower concentrations of citric acid (0.01-0.1 M): 30 mg/kg; for Cumulative numbers of cough, median, citric acid 0.01M / Cumulative numbers of cough, median, citric acid 0.1M / Cumulative numbers of cough, median, citric acid 0.3M / Effect on cumulative number of coughs evoked by citric acid (0.01-0.3M) compared to controls: 30 mg/kg intraperitoneally", "quoted_text": "Male Hartley guinea pigs (200-700 g) were studied and all experiments were first approved by the institutional Animal Care and Use Committee.\nAnimals were placed in a transparent chamber (Buxco Research Systems, Wilmington, N.C.) with a continuous flow of air and exposed to increasing concentrations of citric acid (0.01 M-0.3 M) is delivered by an ultrasonic nebulizer generating aerosol particles of 3-6 μm diameter. Coughs were counted during a 5 minute nebulization period and over the subsequent 5 minutes with the assistance of sound and pressure monitoring from the chamber. Respiratory rate and tidal volume were monitored throughout via a calibrated pressure transducer (Emka Technologies, Falls Church, Va.).\nEach of these drugs was administered orally in half-log increments (e.g. 3 mg/kg, 10 mg/kg, 30 mg/kg) in an unpaired experimental design (each animal received only 1 dose of drug). The drugs were administered 60 minutes prior to citric acid challenge, which consisted of 5 minute challenges with aerosols of increasing concentrations of citric acid (0.01-0.3M), with 5 minute intervals in between escalating doses of the tussive stimulus."}, "[3]": {"test_system": "cough", "details": "cited from earlier work"}, "[4]": {"experiment": "Sedation and side effects observed in the cough studies", "details": "for Sedation (FIG. 20): 30 mg/kg intraperitoneally; for Animals with mild to moderate sedation: n=8; for Sedation: 50 mg/kg, precluded assessment of cough"}, "[5]": {"experiment": "Respiratory parameters during cough challenge", "assay_type": "in vivo, guinea pig", "details": "50 mg/kg; controls 117.7(±26.3)", "procedure": "Using a similar chamber and nebulizer system, animals were treated first with aerosolized peptidase inhibitors (captopril 0.1 μM and thiorphan 0.1 μM, 5 minutes nebulization) to reduce bradykinin degradation and enhance tussive responses evoked by bradykinin (unpublished observations). Animals were then exposed to increasing concentrations of aerosolized bradykinin (0.1-3 mg/mL), again for 5 minute periods. Coughs are counted during this and the subsequent 5 minutes. Pressure changes within the chamber are used to monitor respiratory rate (Biopac Systems Inc, Goleta, Calif.)."}, "[6]": {"test_system": "freezing behavior during cued fear conditioning", "experiment": "Cued fear conditioning in mice", "assay_type": "in vivo", "details": "diphenhydramine 20 mg/kg IP, p=0.061", "procedure": "The effects of memantine on enhancing cognition were investigated with fear conditioning tests on mice. Specifically, the fear conditioning test exposed mice to a conditioned stimulus (a tone) and an unconditioned stimulus (a mild electric shock). The mice learned to associate the tone with the shock as reflected by freezing. After being adequately conditioned, the mice were administered memantine or a control (vehicle alone). […] Fear Conditioning: Fear conditioning mouse chambers (7''W×7''D×12''H; Coulbourne Instruments, […] Valley, Pa.) were housed in sound attenuating chambers. A camera was mounted on the ceiling of the chamber to capture mouse behavior (FreezeFrame software, Coulbourne Instruments, […] Valley, Pa.); data were analyzed by Freezeview software (Coulbourne Instruments, […] Valley, Pa.). Fear conditioning chambers were calibrated prior to each experiment to ensure that each chamber delivers the same shock intensity. […] Pavlovian fear conditioning refers to the learning of associations between a negative reinforcer (e.g., a mild electric foot shock/s), a novel context (e.g. a context) and/or a specific, neutral, cue (e.g., tone or white noise). To assess contextual and cued (tone) learning and memory, a standardized fear conditioning task developed for the evaluation of memory in rodents was used. Protocol: […] Cue-induced Conditioning Testing: Mice were tested for cued memory 48 hours after training. The cued conditioning test was conducted in an altered context (i.e., a different test chamber). […] Statistical Analysis: Data are represented as the mean and standard error to the mean. Data were analyzed by analysis of variance (ANOVA) followed by Fisher PLSD, or unpaired t-tests, when appropriate to test a planned comparison. An effect was considered significant if p<0.05. Statistical outliers that fell above or below two standard deviations from the mean were removed from the final analysis."}, "[7]": {"test_system": "Caco-2 cells", "experiment": "Memantine in vitro intestinal permeability (Caco-2 cells)", "assay_type": "in vitro ADME", "details": "FIG. 12"}, "[8]": {"details": "in vivo, po; cited from earlier work"}},
  "note": "Marks after values point to notes of the source that are not given here.",
  "data": [
    {"smiles": "NC(CCCP(=O)(O)O)C(=O)O", "note": "(stereo not shown) [AP5]", "values": [
      {"measurement": "Effect of microinjection on citric acid evoked coughing", "setting": "[1]", "result": "prevents citric acid evoked coughing"}
    ]},
    {"smiles": "Nc1c(Br)cc(Br)cc1CN[C@H]1CC[C@H](O)CC1", "note": "[Ambroxol]", "values": [
      {"measurement": "Mean ± sem cumulative coughs", "setting": "[2]; 100 mg/kg po", "result": "13 ± 4"},
      {"measurement": "≧15 Cumulative coughs/total number of guinea pigs", "setting": "[2]; 100 mg/kg po", "result": "2/6"},
      {"measurement": "Effect of single agent on citric acid (0.01-0.3M) induced cough", "setting": "[2]", "result": "failed to inhibit cough"}
    ]},
    {"smiles": "CCCCNc1ccc(C(=O)OCCOCCOCCOCCOCCOCCOCCOCCOCCOC)cc1", "note": "[Benzonatate]", "values": [
      {"measurement": "Mean ± sem cumulative coughs", "setting": "[2]; 10 mg/kg po", "result": "24 ± 4"},
      {"measurement": "≧15 Cumulative coughs/total number of guinea pigs", "setting": "[2]; 10 mg/kg po", "result": "3/3"},
      {"measurement": "Mean ± sem cumulative coughs", "setting": "[2]; 30 mg/kg po", "result": "13 ± 4"},
      {"measurement": "≧15 Cumulative coughs/total number of guinea pigs", "setting": "[2]; 30 mg/kg po", "result": "2/5"},
      {"measurement": "Effect of single agent on citric acid (0.01-0.3M) induced cough", "setting": "[2]", "result": "failed to inhibit cough"}
    ]},
    {"smiles": "COc1ccc2c(c1)[C@]13CCCC[C@@H]1[C@H](C2)N(C)CC3", "note": "[Dextromethorphan]", "values": [
      {"measurement": "Effect of microinjection on citric acid evoked coughing", "setting": "[1]", "result": "prevents citric acid evoked coughing"},
      {"measurement": "Efficacy in cough associated with upper respiratory tract infections", "setting": "[3]; Bolser 2006", "result": "ineffective"},
      {"measurement": "Sedation (FIG. 20)", "setting": "[4]", "result": "moderate to severe sedation in the majority of animals studied"},
      {"measurement": "Animals with mild to moderate sedation", "setting": "[4]; 30 mg/kg", "result": 62.5, "unit": "%"},
      {"measurement": "Duration of sedation", "setting": "[4]; 30 mg/kg, persisted throughout the citric acid challenge", "result": "> 2", "unit": "h"},
      {"measurement": "Sedation", "setting": "[4]", "result": "severe sedation"},
      {"measurement": "mean breathing frequency", "setting": "[5]", "result": "90.0(±13.7) breaths/min"},
      {"measurement": "Effect on cumulative number of coughs evoked by lower concentrations of citric acid (0.01-0.1 M)", "setting": "[2]", "result": "significantly reduced the cumulative number of coughs"},
      {"measurement": "Cumulative numbers of cough, median, citric acid 0.01M", "setting": "[2]", "result": 0.0},
      {"measurement": "Cumulative numbers of cough, median, citric acid 0.1M", "setting": "[2]", "result": "0.5*"},
      {"measurement": "Cumulative numbers of cough, median, citric acid 0.3M", "setting": "[2]", "result": 7.5},
      {"measurement": "Effect on cumulative number of coughs evoked by citric acid (0.01-0.3M) compared to controls", "setting": "[2]", "result": "failed to produce a statistically significant reduction in cumulative coughs"}
    ]},
    {"smiles": "CN(C)CCOC(c1ccccc1)c1ccccc1", "note": "[Diphenhydramine]", "values": [
      {"measurement": "cue-induced fear conditioning, CS phase, vs vehicle-vehicle", "setting": "[6]", "result": "strong trend toward decreased cue-induced fear conditioning"}
    ]},
    {"smiles": "COc1ccccc1OCC(O)CO", "note": "(stereo not shown) [Guaifenesin, 3-(2-methoxyphenoxy)-1,2-propanediol]", "values": [
      {"measurement": "Mean ± sem cumulative coughs", "setting": "[2]; 50 mg/kg po", "result": "30 ± 1"},
      {"measurement": "≧15 Cumulative coughs/total number of guinea pigs", "setting": "[2]; 50 mg/kg po", "result": "3/3"},
      {"measurement": "Mean ± sem cumulative coughs", "setting": "[2]; 100 mg/kg po", "result": "20 ± 5"},
      {"measurement": "≧15 Cumulative coughs/total number of guinea pigs", "setting": "[2]; 100 mg/kg po", "result": "3/4"},
      {"measurement": "Effect of single agent on citric acid (0.01-0.3M) induced cough", "setting": "[2]", "result": "failed to inhibit cough"}
    ]},
    {"smiles": "CNC1(c2ccccc2Cl)CCCCC1=O", "note": "(stereo not shown) [Ketamine]", "values": [
      {"measurement": "Efficacy in chronic cough patients", "setting": "[3]; Young et al.", "result": "ineffective"},
      {"measurement": "Sedation (FIG. 20)", "setting": "[4]", "result": "moderate to severe sedation in the majority of animals studied"},
      {"measurement": "Time at which sedation reversed", "setting": "[4]; 30 mg/kg, during the cough challenge", "result": "40-50 minutes post-injection"},
      {"measurement": "Animals with mild to moderate sedation", "setting": "[4]; 30 mg/kg", "result": 87.5, "unit": "%"},
      {"measurement": "Sedation", "setting": "[4]", "result": "severe sedation"},
      {"measurement": "mean breathing frequency", "setting": "[5]", "result": "92.3(±18.8) breaths/min"},
      {"measurement": "Effect on cumulative number of coughs evoked by lower concentrations of citric acid (0.01-0.1 M)", "setting": "[2]", "result": "not"},
      {"measurement": "Cumulative numbers of cough, median, citric acid 0.01M", "setting": "[2]", "result": 0.0},
      {"measurement": "Cumulative numbers of cough, median, citric acid 0.1M", "setting": "[2]", "result": 1.5},
      {"measurement": "Cumulative numbers of cough, median, citric acid 0.3M", "setting": "[2]", "result": 11.0},
      {"measurement": "Effect on cumulative number of coughs evoked by citric acid (0.01-0.3M) compared to controls", "setting": "[2]", "result": "failed to produce a statistically significant reduction in cumulative coughs"}
    ]},
    {"smiles": "CC1CCC(C(C)C)C(O)C1", "note": "(stereo not shown) [Menthol]", "values": [
      {"measurement": "Mean ± sem cumulative coughs", "setting": "[2]; 30 mg/kg po", "result": "21 ± 3"},
      {"measurement": "≧15 Cumulative coughs/total number of guinea pigs", "setting": "[2]; 30 mg/kg po", "result": "3/3"},
      {"measurement": "Mean ± sem cumulative coughs", "setting": "[2]; 100 mg/kg po", "result": "11±2"},
      {"measurement": "≧15 Cumulative coughs/total number of guinea pigs", "setting": "[2]; 100 mg/kg po", "result": "1/7"}
    ]},
    {"smiles": "N[C@@H](Cc1cc(CP(=O)(O)O)cc(-c2ccccc2Cl)c1)C(=O)O", "note": "[SDZ220581]", "values": [
      {"measurement": "Effect of microinjection on citric acid evoked coughing", "setting": "[1]", "result": "prevents citric acid evoked coughing"}
    ]},
    {"smiles": "CCCCCCCC/C=C\\CCCCCCCC(=O)O", "note": "[oleic acid]", "values": [
      {"measurement": "Effect as permeation enhancer on memantine Caco-2 permeability", "setting": "[7]", "result": "ineffective"}
    ]},
    {"smiles": "CC(O)CO", "note": "(stereo not shown) [propylene glycol]", "values": [
      {"measurement": "Effect as permeation enhancer on memantine Caco-2 permeability", "setting": "[7]", "result": "ineffective"}
    ]},
    {"smiles": "Cc1ccc(-c2nc3ccc(C)cn3c2CC(=O)N(C)C)cc1", "note": "[zolpidem]", "values": [
      {"measurement": "orally bioavailable", "setting": "[8]", "result": "less than 70%"}
    ]}
  ]
}
